Columns and labels:
[1] = system: Coniophora puteana BAM Ebw. 15; assay: Bravery test (closely based on EN 113) on impregnated wood test specimens, preventive effect against wood-destroying fungi; type: cell-based; details: test fungus CP, Pinus spp. (southern yellow pine) specimens 40x15x4 mm, loss in weight after 6 weeks, <3% by weight = satisfactory; for Limits of the effectiveness, with leaching (EN 84): with leaching according to EN 84
Description: (§1) The limits of the effectiveness of the compositions according to the invention with regard to wood-destroying basidiomycetes were determined on wood test specimens of Pinus spp. (southern yellow pine) with the dimensions 40×15×4 mm. The test method on comminuted wood test specimens, known as the Bravery test, is closely based on EN 113 and is used to determine the preventive effect of wood preservatives against wood-destroying fungi (see in this connection A. F. Bravery, Intern. Res. Group Wood Pres., Doc. No. IRG/WP/2113, 5S., Stockholm, 1978). The wood test specimens impregnated with the composition according to the invention were tested without or with the constraint of leaching according to EN 84. […] Coniophora puteana BAM Ebw. 15 and Poria placenta FPRL 280 were used as test fungi. The destruction of the wood caused by fungal infection was registered by the loss in weight of the test woods, which was determined after 6 weeks. […] The concentration limit of the effectiveness is given in two concentrations. […] The limits of the effectiveness are represented in table 4. For comparison, the values determined for a solution of the active substance in acetone are given.

[2] = system: Poria placenta FPRL 280; assay: as above; type: cell-based; details: test fungus PP, Pinus spp. (southern yellow pine) specimens 40x15x4 mm, loss in weight after 6 weeks, <3% by weight = satisfactory; for Limits of the effectiveness, with leaching (EN 84): with leaching according to EN 84
Description: as §1

SMILES | Limits of the effectiveness, with leaching (EN 84) [1] | Limits of the effectiveness, without leaching [1] [kg/m^3] | Limits of the effectiveness, with leaching (EN 84) [2] | Limits of the effectiveness, without leaching [2]
Fc1ccc([C@]2(Cn3cncn3)O[C@H]2c2ccccc2Cl)cc1 (racemic) [Solution of epoxiconazole, epoxiconazole] | 0.11-0.16 kg/m^3 | <0.19 | 0.11-0.18 kg/m^3 | <0.19 kg/m^3
CC(C)(C)C(O)(CCc1ccc(Cl)cc1)Cn1cncn1 (centres unmarked) [Solution of tebuconazole, tebuconazole] | <0.054 kg/m^3 | <0.052 | 0.095-0.152 kg/m^3 | 0.102-0.153 kg/m^3
